From ChEMBL document CHEMBL6153032, “Discovery of a highly potent, N-terminal domain-targeting degrader of AR-FL/AR-V7 for the treatment of prostate cancer” (Eur J Med Chem, 2025)
pIC50: −log10 of the molar value. Activity calls are given as the source filed them. No cut-off for these calls is given here.

What was measured:
[1] = system: CWR22R; test: Induction of apoptosis in human 22Rv1 cells assessed as necrotic cells at 100 nM incubated for 48 hrs by Annexin V/FITC staining based flow cytometry analysis (reference value: 2.31 %); assay type: functional
[2] = system: DU-145; test: Antiproliferative activity against human DU-145 cells assessed as cell viability incubated for 4 days by CCK-8 assay; assay type: functional, cell-based; conditions: DU-145, 96 h
[3] = Antiproliferative activity against human MCF-10A cells assessed as cell viability incubated for 4 days by CCK-8 assay; assay type: toxicity, cell-based
[4] = Toxicity in BALB/c mouse assessed as spleen damage at 10 mg/kg, iv administered once daily for 21 days by H and E staining based analysis; assay type: organism-based; conditions: in vivo, 504 h, time 21 day
[5] = system: LNCaP; test: Antiproliferative activity against human LNCaP cells assessed as cell viability incubated for 4 days by CCK-8 assay; assay type: functional, cell-based; conditions: 96 h
[6] = MRT (0 to infinity) in Sprague-Dawley rat 2 mg/kg, iv by LC-MS/MS analysis; assay type: ADME, organism-based; conditions: in vivo
[7] = molecular target: T1, Protein cereblon/Androgen receptor (Homo sapiens, UniProt P10275+Q96SW2); test: PROTAC activity at full length Androgen receptor/CRBN in human 22Rv1 cells assessed as reduction in full length androgen receptor level at 1 uM by Western blot analysis; assay type: cell-based; conditions: time 6.0 hrs
Target sequence in this assay (P10275 whole entry, looked up): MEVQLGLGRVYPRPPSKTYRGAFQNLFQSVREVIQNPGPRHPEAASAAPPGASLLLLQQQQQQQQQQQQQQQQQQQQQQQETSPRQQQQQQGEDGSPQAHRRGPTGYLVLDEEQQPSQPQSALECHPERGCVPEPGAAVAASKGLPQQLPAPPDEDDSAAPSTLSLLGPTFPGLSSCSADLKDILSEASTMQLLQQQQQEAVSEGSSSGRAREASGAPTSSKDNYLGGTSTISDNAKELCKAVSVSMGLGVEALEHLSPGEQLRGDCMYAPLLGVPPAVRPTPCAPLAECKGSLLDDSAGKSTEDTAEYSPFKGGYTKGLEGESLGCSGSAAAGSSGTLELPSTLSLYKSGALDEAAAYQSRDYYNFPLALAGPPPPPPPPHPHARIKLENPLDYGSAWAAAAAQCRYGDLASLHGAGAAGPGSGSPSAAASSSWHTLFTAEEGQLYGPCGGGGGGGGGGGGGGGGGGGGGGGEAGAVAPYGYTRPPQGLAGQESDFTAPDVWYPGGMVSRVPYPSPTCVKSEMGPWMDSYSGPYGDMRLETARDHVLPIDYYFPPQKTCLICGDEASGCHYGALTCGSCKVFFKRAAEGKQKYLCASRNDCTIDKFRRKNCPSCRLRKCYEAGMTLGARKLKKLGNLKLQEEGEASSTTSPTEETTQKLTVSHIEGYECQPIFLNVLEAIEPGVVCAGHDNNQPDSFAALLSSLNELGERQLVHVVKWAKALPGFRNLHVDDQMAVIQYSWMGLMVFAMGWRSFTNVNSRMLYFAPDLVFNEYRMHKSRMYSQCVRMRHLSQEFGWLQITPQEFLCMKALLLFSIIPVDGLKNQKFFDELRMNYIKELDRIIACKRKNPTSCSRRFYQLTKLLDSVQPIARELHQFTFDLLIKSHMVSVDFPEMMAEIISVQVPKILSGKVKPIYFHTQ
Target sequence in this assay (Q96SW2 whole entry, looked up): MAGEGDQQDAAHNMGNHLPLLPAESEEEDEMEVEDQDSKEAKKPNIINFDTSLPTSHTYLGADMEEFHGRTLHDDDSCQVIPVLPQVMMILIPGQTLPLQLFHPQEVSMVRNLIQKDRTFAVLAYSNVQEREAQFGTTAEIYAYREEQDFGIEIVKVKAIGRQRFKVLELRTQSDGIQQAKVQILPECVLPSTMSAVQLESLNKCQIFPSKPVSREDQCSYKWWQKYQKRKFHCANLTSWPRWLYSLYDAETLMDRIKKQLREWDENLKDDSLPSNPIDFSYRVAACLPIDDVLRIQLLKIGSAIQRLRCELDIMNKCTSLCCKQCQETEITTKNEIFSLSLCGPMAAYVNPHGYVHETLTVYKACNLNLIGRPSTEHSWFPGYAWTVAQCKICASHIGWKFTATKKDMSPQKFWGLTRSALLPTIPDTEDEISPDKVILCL

[8] = molecular target: T1, Protein cereblon/Androgen receptor; test: PROTAC activity at full length Androgen receptor/CRBN in human 22Rv1 cells assessed as induction of full length androgen receptor degradation at 100 nM incubated for 12 hrs in presence of MLN4924 by Western blot analysis; assay type: cell-based
Target sequence in this assay (P10275 whole entry, looked up): as the sequence (P10275 whole entry, looked up) above
Target sequence in this assay (Q96SW2 whole entry, looked up): as the sequence (Q96SW2 whole entry, looked up) above

[9] = Toxicity in BALB/c mouse assessed as heart damage at 10 mg/kg, iv administered once daily for 21 days by H and E staining based analysis; assay type: organism-based; conditions: in vivo, 504 h, time 21 day
[10] = molecular target: T1, Protein cereblon/Androgen receptor; test: (§1) PROTAC activity at AR-V7/CRBN in human 22Rv1 cells assessed as reduction in AR-V7 level incubated for 24 hrs by Western blot analysis; assay type: cell-based; conditions: cwr22r
Target sequence in this assay (P10275 whole entry, looked up, change not shown): as the sequence (P10275 whole entry, looked up) above
Target sequence in this assay (Q96SW2 whole entry, looked up, change not shown): as the sequence (Q96SW2 whole entry, looked up) above

[11] = system: Protein cereblon/Androgen receptor (Homo sapiens), P10275+Q96SW2 [UNDEFINED MUTATION]; test: as §1; assay type: cell-based; conditions: CWR22R, dose <= 5.0 µM
Chain of Protein cereblon/Androgen receptor (Homo sapiens), P10275+Q96SW2 [UNDEFINED MUTATION] (P10275 whole entry, looked up, stated change not applied): as the sequence (P10275 whole entry, looked up) above
Chain of Protein cereblon/Androgen receptor (Homo sapiens), P10275+Q96SW2 [UNDEFINED MUTATION] (Q96SW2 whole entry, looked up, stated change not applied): as the sequence (Q96SW2 whole entry, looked up) above

[12] = Metabolic stability in mouse liver microsome assessed as intrinsic clearance measured upto 45 mins by LC/MS analysis; assay type: ADME; conditions: liver microsomes, read-out: CLH
[13] = molecular target: T1, Protein cereblon/Androgen receptor; test: PROTAC activity at full length Androgen receptor/CRBN in human 22Rv1 cells assessed as induction of full length Androgen receptor degradation at 1 uM incubated for 24 hrs by Western blot analysis relative to control; assay type: cell-based
Target sequence in this assay (P10275 whole entry, looked up): as the sequence (P10275 whole entry, looked up) above
Target sequence in this assay (Q96SW2 whole entry, looked up): as the sequence (Q96SW2 whole entry, looked up) above

[14] = system: CWR22R; test: Induction of apoptosis in human 22Rv1 cells assessed as early apoptotic cells at 100 nM incubated for 48 hrs by Annexin V/FITC staining based flow cytometry analysis (reference value: 2.08 %); assay type: functional
[15] = system: Protein cereblon/Androgen receptor (Homo sapiens), P10275+Q96SW2 [UNDEFINED MUTATION]; test: PROTAC activity at AR-V7/CRBN in human 22Rv1 cells assessed as induction of AR-V7 degradation at 100 nM incubated for 12 hrs in presence of MLN4924 by Western blot analysis; assay type: cell-based; conditions: CWR22R
[16] = molecular target: T1, Protein cereblon/Androgen receptor; test: PROTAC activity at full length Androgen receptor/CRBN in human 22Rv1 cells assessed as induction of full length Androgen receptor degradation at 5 uM incubated for 24 hrs by Western blot analysis relative to control; assay type: cell-based
Target sequence in this assay (P10275 whole entry, looked up): as the sequence (P10275 whole entry, looked up) above
Target sequence in this assay (Q96SW2 whole entry, looked up): as the sequence (Q96SW2 whole entry, looked up) above

[17] = molecular target: Protein cereblon/Estrogen receptor (Homo sapiens) (UniProt P03372+Q96SW2); test: PROTAC activity at CRBN/ERalpha in human 22Rv1 cells assessed as reduction in ERalpha protein level at 0.01 to 5 uM measured after 24 hrs by Western blot analysis; assay type: cell-based; conditions: dose 0.01-5 µM
Chain of Protein cereblon/Estrogen receptor (Homo sapiens) (P03372 whole entry, looked up): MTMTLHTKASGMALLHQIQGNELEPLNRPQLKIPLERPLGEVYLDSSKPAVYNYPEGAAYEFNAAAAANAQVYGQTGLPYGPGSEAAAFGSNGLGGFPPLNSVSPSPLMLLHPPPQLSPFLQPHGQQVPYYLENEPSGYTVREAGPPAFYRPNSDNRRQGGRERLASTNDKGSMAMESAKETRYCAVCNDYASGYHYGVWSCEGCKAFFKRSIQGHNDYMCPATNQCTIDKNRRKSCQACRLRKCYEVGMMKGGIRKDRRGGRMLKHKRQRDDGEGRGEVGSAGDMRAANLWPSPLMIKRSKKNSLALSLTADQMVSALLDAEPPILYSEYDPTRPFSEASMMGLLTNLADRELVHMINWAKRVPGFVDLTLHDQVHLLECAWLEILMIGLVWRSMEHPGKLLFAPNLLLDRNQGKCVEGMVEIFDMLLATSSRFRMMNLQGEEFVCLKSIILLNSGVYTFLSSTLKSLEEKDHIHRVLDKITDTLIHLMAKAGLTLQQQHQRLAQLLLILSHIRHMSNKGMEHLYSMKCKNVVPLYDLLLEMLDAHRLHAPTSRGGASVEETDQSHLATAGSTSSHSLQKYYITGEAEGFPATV
Chain of Protein cereblon/Estrogen receptor (Homo sapiens) (Q96SW2 whole entry, looked up): as the sequence (Q96SW2 whole entry, looked up) above

[18] = molecular target: T1, Protein cereblon/Androgen receptor; test: PROTAC activity at full length Androgen receptor/CRBN in human LNCaP cells assessed as reduction in full length androgen receptor level incubated for 24 hrs by Western blot analysis; assay type: cell-based
[19] = Antiproliferative activity against human RWPE-1 cells assessed as cell viability incubated for 4 days by CCK-8 assay; assay type: toxicity, cell-based
[20] = molecular target: T1, Protein cereblon/Androgen receptor; test: PROTAC activity at full length Androgen receptor/CRBN in human 22Rv1 cells assessed as induction of full length androgen receptor degradation at 100 nM incubated for 12 hrs in presence of Thalidomide by Western blot analysis; assay type: cell-based
Target sequence in this assay (P10275 whole entry, looked up): as the sequence (P10275 whole entry, looked up) above
Target sequence in this assay (Q96SW2 whole entry, looked up): as the sequence (Q96SW2 whole entry, looked up) above

[21] = Clearance in Sprague-Dawley rat 2 mg/kg, iv by LC-MS/MS analysis; assay type: ADME, organism-based; conditions: in vivo
[22] = system: CWR22R; test: Induction of apoptosis in human 22Rv1 cells assessed as early apoptotic cells at 500 nM incubated for 48 hrs by Annexin V/FITC staining based flow cytometry analysis (reference value: 2.08 %); assay type: functional
[23] = Metabolic stability in mouse liver microsome assessed as half life measured upto 45 mins by LC/MS analysis; assay type: ADME; conditions: liver microsomes
[24] = Initial plasma concentration in Sprague-Dawley rat 2 mg/kg, iv by LC-MS/MS analysis; assay type: ADME, organism-based
[25] = Tmax in Sprague-Dawley rat 2 mg/kg, iv by LC-MS/MS analysis; assay type: ADME, organism-based; conditions: in vivo
[26] = system: CWR22R; test: Induction of apoptosis in human 22Rv1 cells assessed as viable cells at 500 nM incubated for 48 hrs by Annexin V/FITC staining based flow cytometry analysis (reference value: 94.49%); assay type: functional; conditions: read-out: Activity
[27] = system: CWR22R; test: Induction of cell cycle arrest in human 22Rv1 cells assessed as accumulation of cells at G0/G1 phase at 100 nM incubated for 24 hrs by PI staining based flow cytometry analysis (reference value: 62.66%); assay type: functional
[28] = Toxicity in BALB/c mouse assessed as lung damage at 10 mg/kg, iv administered once daily for 21 days by H and E staining based analysis; assay type: organism-based; conditions: in vivo, 504 h, time 21 day
[29] = Cmax in Sprague-Dawley rat 2 mg/kg, iv by LC-MS/MS analysis; assay type: ADME, organism-based; conditions: in vivo
[30] = system: CWR22R; test: Induction of cell cycle arrest in human 22Rv1 cells assessed as accumulation of cells at G2/M phase at 500 nM incubated for 24 hrs by PI staining based flow cytometry analysis (reference value: 8.61%); assay type: functional
[31] = system: CWR22R; test: Downregulation of TMPRSS2 mRNA level in human 22Rv1 cells incubated for 24 hrs by qRT-PCR analysis; assay type: functional, cell-based; conditions: dose 100-500 nM
[32] = system: Protein cereblon/Androgen receptor (Homo sapiens), P10275+Q96SW2 [UNDEFINED MUTATION]; test: PROTAC activity at AR-V7/CRBN in human 22Rv1 cells assessed as reduction in AR-V7 level at 1 uM by Western blot analysis; assay type: cell-based; conditions: CWR22R, time 6.0 hrs
[33] = system: CWR22R; test: Induction of cell cycle arrest in human 22Rv1 cells assessed as accumulation of cells at S phase at 100 nM incubated for 24 hrs by PI staining based flow cytometry analysis (reference value: 28.73%); assay type: functional
[34] = molecular target: T1, Protein cereblon/Androgen receptor; test: PROTAC activity at full length Androgen receptor/CRBN in human 22Rv1 cells assessed as induction of full length Androgen receptor degradation at 0.1 uM incubated for 24 hrs in presence of CHX by Western blot analysis; assay type: cell-based
Target sequence in this assay (P10275 whole entry, looked up): as the sequence (P10275 whole entry, looked up) above
Target sequence in this assay (Q96SW2 whole entry, looked up): as the sequence (Q96SW2 whole entry, looked up) above

[35] = molecular target: hERG (Homo sapiens, UniProt Q12809); test: Inhibition of hERG at 10 uM relative to control; assay type: toxicity
Chain of hERG (Q12809 whole entry): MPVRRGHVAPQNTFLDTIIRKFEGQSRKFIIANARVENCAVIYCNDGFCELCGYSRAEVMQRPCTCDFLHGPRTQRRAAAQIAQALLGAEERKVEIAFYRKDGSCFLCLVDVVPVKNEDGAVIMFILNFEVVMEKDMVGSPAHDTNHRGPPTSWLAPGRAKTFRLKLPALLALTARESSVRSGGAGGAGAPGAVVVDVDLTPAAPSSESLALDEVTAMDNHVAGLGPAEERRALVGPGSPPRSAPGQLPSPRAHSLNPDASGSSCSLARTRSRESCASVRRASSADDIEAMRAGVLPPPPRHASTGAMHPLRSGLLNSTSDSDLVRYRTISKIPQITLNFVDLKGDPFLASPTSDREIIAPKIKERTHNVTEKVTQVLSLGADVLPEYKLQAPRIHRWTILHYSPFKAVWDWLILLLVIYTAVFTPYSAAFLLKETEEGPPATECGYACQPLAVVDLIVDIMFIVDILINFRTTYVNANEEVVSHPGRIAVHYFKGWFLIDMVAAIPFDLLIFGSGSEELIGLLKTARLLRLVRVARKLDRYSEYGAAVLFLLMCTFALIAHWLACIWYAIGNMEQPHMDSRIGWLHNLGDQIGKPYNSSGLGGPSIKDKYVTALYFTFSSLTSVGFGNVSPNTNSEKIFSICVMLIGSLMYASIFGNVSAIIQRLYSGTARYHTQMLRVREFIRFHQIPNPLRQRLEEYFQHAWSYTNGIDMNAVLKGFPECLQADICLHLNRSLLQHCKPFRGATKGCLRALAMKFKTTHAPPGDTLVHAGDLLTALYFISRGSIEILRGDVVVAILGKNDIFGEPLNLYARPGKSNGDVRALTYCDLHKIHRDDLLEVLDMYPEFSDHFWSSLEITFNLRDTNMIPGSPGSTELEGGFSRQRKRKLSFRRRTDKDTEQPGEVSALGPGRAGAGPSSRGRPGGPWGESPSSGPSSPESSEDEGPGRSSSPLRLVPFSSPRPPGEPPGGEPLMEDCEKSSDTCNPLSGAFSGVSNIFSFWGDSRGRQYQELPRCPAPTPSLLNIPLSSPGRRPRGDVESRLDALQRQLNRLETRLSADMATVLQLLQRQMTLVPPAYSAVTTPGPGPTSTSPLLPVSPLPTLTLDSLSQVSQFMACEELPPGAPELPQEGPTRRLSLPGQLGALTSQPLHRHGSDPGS

[36] = Metabolic stability in rat liver microsome assessed as half life measured upto 45 mins by LC/MS analysis; assay type: ADME; conditions: liver microsomes
[37] = system: Protein cereblon/Androgen receptor (Homo sapiens), P10275+Q96SW2 [UNDEFINED MUTATION]; test: PROTAC activity at AR-V7/CRBN in human 22Rv1 cells assessed as induction of AR-V7 degradation at 0.1 uM incubated for 24 hrs in presence of CHX by Western blot analysis; assay type: cell-based; conditions: CWR22R

pIC50 [2]: < 4.10
pIC50 [5]: 6.75
MRT inf [6]: 37.2 min
Activity [7]: Time-dependent-effect
Activity [8]: Active
DC50 [10]: 26 nM
Activity [11]: Dose-dependent-effect
CLint scaled [12]: 296 mL/min/kg
Activity [13]: 89.2%
Activity [15]: Active
Activity [16]: 90.2%
Activity [17]: Active
DC50 [18]: 180 nM
Activity ([18]; dose <= 5.0 µM): Dose-dependent-effect
Activity [20]: Active
clearance [21]: 15.1 mL/min/kg
half-life [23]: 18.4 min
C0 [24]: 13900 ng/mL
Tmax [25]: 4.98 min
Cmax [29]: 6440 ng/mL
Activity [32]: Time-dependent-effect
Activity [34]: Active
half-life [36]: 61.1 min
Activity [37]: Active
SMILES: CC(C)(c1ccc(OCCNc2cccc3c2C(=O)N(C2CCC(=O)NC2=O)C3=O)cc1)c1ccc(OCc2cccc(N3CCOCC3)n2)cc1 (stereo not drawn)
Activity [1]: 2.13%
IC50 at 4 days [3]: > 80000 nM
Activity [4]: Non-toxic
Activity [9]: Non-toxic
Activity [14]: 14.57%
IC50 at 4 days [19]: > 80000 nM
Activity [22]: 16.93%
viability at 0.5 µM [26]: 65.1%
Activity [27]: 41.16%
Activity [28]: Non-toxic
Activity [30]: 21.54%
Activity [31]: Dose-dependent-effect
Activity [33]: 43.39%
inhibition at 10 µM [35]: < 40%
